{
  "source": "patent US20250275995A1",
  "about": "“NICOTINAMIDE RIBOSIDE DOSAGE REGIMEN FOR TREATING PARKINSON'S DISEASE” (VESTLANDETS INNOVASJONSSELSKAP AS (VIS), priority 2022, published 2025)",
  "key": {"[1]": {"test_system": "Parkinson's Disease (PD)", "assay": "NADPARK: clinical severity by MDS-UPDRS", "format": "in vivo, human", "experimental": "The present inventors completed a phase I randomized, double blinded trial, aiming to assess the tolerability, cerebral bioavailability and molecular effects of NR therapy in PD. A total of 30 individuals with newly diagnosed, drug-naïve PD were randomized to NR 500 mg×2/day or placebo for 30 days (Cell Metab. 2022 Mar. 1; 34(3):396-407.e6).\nNR is associated with clinical improvement of PD. NR at 1000 mg daily was associated with a significant decrease in the total MDS-UPDRS (I-III) score between visits (mean decrease: 2.33±2.35; paired t-test: p=0.017)."}, "[2]": {"test_system": "cerebral metabolic activity", "assay": "NADPARK: FDG-PET, NR-related metabolic pattern (NRRP)", "format": "in vivo, human", "source_text": "This novel NR-related metabolic pattern (NRRP) was characterized by multiple regional metabolic changes, including bilateral metabolic reductions in the caudate and putamen, extending into the adjacent globus pallidus, and in the thalamus (FIG. 1D-E). […] The NRRP expression can be derived from the FDG-PET data, as previously described (Cell Metab. 2022 Mar. 1; 34(3):396-407.e6). For example, a NR-related metabolic pattern (NRRP) can be identified by using ordinal trends/canonical variates analysis (OrT/CVA), a supervised form of principal component analysis (PCA) (Habeck et al., (2005), Neural Computation 17, 1602-1645). […] Likewise, the reliability of the voxel loadings (i.e., region weights) on the resulting network topography can be assessed using bootstrap resampling procedures (Habeck and Stern (2010), Cell Biochemistry and Biophysics 58, 53-67; Mure et al. (2011), Neuroimage 54, 1244-1253). The analysis can be restricted to the top PC patterns, accounting for greater than 75% of the subject×voxel variance in the longitudinal data. Expression values for these PCs can then be entered singly and in all possible linear combinations to identify significant monotonic trends in the individual subject data, i.e., consistent increases (or decreases) in pattern expression across the subjects with few if any violations (p<0.05; permutation test, 1000 iterations). The resulting coefficients are applied to the corresponding PC patterns to construct the NR-related topography. […] The analysis can be performed within a population or the individual subject's gray matter brain mask defined by the FDG-PET scans, e.g., as outlined in Table 1."}, "[3]": {"test_system": "brain NAD levels", "assay": "NAD-brain pharmacokinetic study: brain NAD by 31P-MRS", "format": "in vivo, human", "conditions": "1200 mg daily for 8 days", "experimental": "• At screening, participants are assessed for eligibility, inclusion/exclusion criteria, medical history and concomitant medication is recorded, and informed consent signed. • The NAD-brain study performs a parallel assessment of NAD replenishment therapy pharmacokinetics in the blood and brain of healthy human subjects and subjects with Parkinson's disease (PD). Healthy individuals and individuals with PD undergo repeated blood sampling and 31P-MRS brain scans during two 20-day periods, each of which starts with 8 days of daily intake of NR 600 mg×2, or NMN 600 mg×2 (Table 10). • For each 20-day period the testing (i.e., scanning and blood draw) frequency is shown in Table 10, below. The two 20-day periods are 14 days apart to allow for washout of the previous compound. This is a pharmacokinetic (PK) study where 6 healthy individuals (3 male and 3 female): • 1) Received NR 1200 mg daily (600 mg×2) for 8 days, followed by an additional 11 days follow up, while undergoing serial blood and brain NAD-measurement. • 2) Received NMN 1200 mg daily (600 mg×2) for 8 days, followed by an additional 11 days follow up, while undergoing serial blood and brain NAD-measurement. The individuals were mixed, so that in stage-1 three individuals received NR and three individuals received NMN, then in stage-2 they switched (Cross-over design). There were almost three weeks (20 days) of washout between the last dose of the first compound, and before the first dose of the second compounds. In the brain, total NAD (NAD^++NADH) levels were measured by 31P-MRS as previously described^19. […] 19 Brakedal, B. et al. The […] study: A randomized phase I trial of nicotinamide riboside supplementation in Parkinson's disease. Cell Metab 34, 396-407.e6 (2022)."}, "[4]": {"test_system": "blood NAD levels", "conditions": "cited from earlier work"}},
  "data": [
    {"smiles": "NC(=O)c1ccc[n+]([C@@H]2O[C@H](CO)[C@@H](O)[C@H]2O)c1", "note": "[NR, nicotinamide riboside]", "values": [
      {"measurement": "mean decrease in total MDS-UPDRS (I-III) score between visits", "setting": "[1]; NR 1000 mg daily, as stated in first sentence", "result": "2.33±2.35"},
      {"measurement": "change in MDS-UPDRS (total or subsections I-III)", "setting": "[1]; NR 1000 mg daily, whole NR group", "result": "No significant change"},
      {"measurement": "mean decrease in MDS-UPDRS", "setting": "[1]; nine individuals showing >10% increase in cerebral NAD levels", "result": "2.33±2.35"},
      {"measurement": "mean decrease in MDS-UPDRS", "setting": "[1]; subgroup of ten NR-recipients with increased cerebral NAD levels", "result": "1.9±2.78"},
      {"measurement": "effect size (ES) of NRRP expression increase vs placebo", "setting": "[2]; 1000 mg NR", "result": 0.883},
      {"measurement": "increase in NRRP expression (mean±SD)", "setting": "[2]; 1000 mg NR, NR treatment group", "result": "0.68±0.86"},
      {"measurement": "effect of NRRP expression change on PD cerebral metabolic pattern", "setting": "[2]; NR group, 1000 mg daily, FDG-PET", "result": "partial normalization of the striatal and thalamic hypermetabolism"},
      {"measurement": "brain NAD levels, baseline vs day of maximal blood NAD", "setting": "[3]; 31P-MRS, day 9 (NR), day 8 (NMN)", "result": "significant increase in brain NAD levels"},
      {"measurement": "NAD levels at day 19", "setting": "[3]; 11 days after last dose", "result": "remained elevated"},
      {"measurement": "blood NAD levels in a 24h-period after intake", "setting": "[4]; 1000 mg NR after increasing NR doses twice daily for nine days", "result": "stably increased"},
      {"measurement": "blood NAD levels 23.8 h after intake", "setting": "[4]; 1000 mg NR, single subject", "result": "decreased, but not yet to baseline"},
      {"measurement": "time of peak blood NAD levels after intake", "setting": "[4]; 1000 mg NR, single subject", "result": 7.7, "unit": "h"},
      {"measurement": "increase of blood NAD^+ levels", "setting": "[4]; 1000 mg or 2000 mg NR daily, reported studies", "result": "1.37-2.8 fold"}
    ]}
  ]
}
